Reference: US20150231209A1, “STIMULATION OF OVARIAN FOLLICLE DEVELOPMENT AND OOCYTE MATURATION” (THE BOARD OF TRUSTEES OF THE LELAND STANFORD JUNIOR …, priority 2012, published 2015)

Legend:
[1] = test system: ovarian grafts; experiment: Ovarian grafting under kidney capsule of FSH-treated hosts: graft weights and follicle counting; format: in vivo, mice; conditions: ovaries treated 30 min. with different concentrations, grafted 5 days, hosts treated daily with FSH
Experimental: FIG. 3. Additive effects of Hippo signaling disruption and Akt stimulation promoted secondary follicle growth. A) Secondary follicles are responsive to IVA treatment. Secondary follicles (115 um in diameter) were isolated from mice at day 10 of age and cultured in vitro with the standard IVA protocol (first day with bPV(hopic) at 3 mM and 740YP at 15 ug/ml, followed by one more day with 740YP alone), followed by treatment with daily FSH (100 ng/ml) for two more days (IVA+FSH). The control groups were either treatment with media alone for four days or treated with the IVA reagent for two days followed by media alone (IVA alone). B) Ovarian fragmentation and IVA treatment led to additive effects on ovarian weight gain and secondary follicle growth. Paired ovaries from mice at day 10 of age were fragmented into three pieces. Fragments from one side were treated with the IVA protocol (bpV(hopic) at 30 uM and 740YP at 150 ng/ml for one day, followed by one more day with 740YP only) whereas fragments from the contralateral side were incubated in media alone. Ovarian fragments were then allo-transplanted into kidney capsules of adult ovariectomized mice with hosts injected with FSH (daily at 1 IU/animal). Five 5 days later, ovarian grafts were retrieved, fixed and weighted. Left panel: graft weights; right panel: Follicle dynamics of grafted ovarian fragments. Percentages of follicles at different stages were determined based on serial sections of grafts. C, Follicle dynamics before and after grafting of intact and fragmented murine ovaries with or without treatment with Akt stimulators. Left: total follicle numbers, Right: follicle dynamics. n=4. Same letter symbols indicate significant differences (p<0.05). D-F. Vitrified human cortical strips were thawed and fragmented into cubes before treatment with Akt stimulators for 2 days followed by grafting into immune-deficient mice for 4 weeks. D. Cortical strips before grafting. Arrow: a secondary follicle, arrowheads: primordial/primary follicles. Scale bar, 100 μm. E. A kidney graft in situ (left) and after isolation (right), showing an antral follicle. F. Histology of two large antral follicles with the side view of one showing an oocyte at the germinal vesicle stage (arrow). Scale bar, 1 mm. Mean±SEM; * p<0.05.
FIG. 7. Pre-treatment with verteporfin and CCN2 antibodies suppressed fragmentation-induced ovarian growth. A, Pretreatment with verteporfin suppressed fragmentation-induced increases in CCN2, but not AMH, transcript levels. Juvenile mice were injected i.p. with verteporfin for 3 h before retrieving ovaries for fragmentation. At 4 h after incubation, transcript levels for CCN2 and AMH were determined by real-time RT-PCR. n=6-12. […] Ovaries from juvenile mice pre-injected with verteporf in for 3 h were fragmented and incubated for 1 h before grafting into FSH-treated hosts for 5 days followed by determination of graft weights. Numbers in parentheses are number of samples used. C, Follicle dynamics of intact and fragmented ovarian grafts from animals with or without verteporf in (VP) pretreatment. n=3-5. D, Incubation of fragmented ovaries with CCN2 antibodies suppressed ovarian weight increases. Paired ovaries were fragmented into 3 pieces followed by incubation with CCN2 antibodies or non-immune-IgG for 18 h before grafting for 5 days. Mean±SEM; *p<0.05.
Left upper panel: Paired ovaries from day 10 mice were treated with or without JASP (10 μM) for 30 min. before analyses of F- and G-actin content. Left lower panel: Real-time RT-PCR analyses of CCN2 transcript levels after 30 min. exposure to JASP. Right panel: Immunoblotting analyses of CCN2 protein levels after 30 min. treatment with JASP. Upper panel: Immunoblotting analyses. Lower panel: quantitative analyses of densitometric scanning data. Numbers in parentheses are number of samples used. * p<0.05. […]

[2] = test system: F-actin/G-actin; experiment: F-actin and G-actin content of ovaries after JASP; format: cell-based; conditions: 10 μM for 30 min., ovaries from day 10 mice
Experimental: (§1) Left upper panel: Paired ovaries from day 10 mice were treated with or without JASP (10 μM) for 30 min. before analyses of F- and G-actin content. Left lower panel: Real-time RT-PCR analyses of CCN2 transcript levels after 30 min. exposure to JASP. Right panel: Immunoblotting analyses of CCN2 protein levels after 30 min. treatment with JASP. Upper panel: Immunoblotting analyses. Lower panel: quantitative analyses of densitometric scanning data. Numbers in parentheses are number of samples used. * p<0.05. […] Ovaries from day 10 mice were treated with or without different concentrations of JASP for 30 min. before grafting into adult hosts treated daily with FSH. Five days later, graft weights were determined.
Paired ovaries from CD-1 mice at different ages were excised in L-15 medium. One ovary from each animal was cut into 2-4 pieces, whereas the contralateral one remained intact. Ovaries were transferred to culture plate inserts (Millipore, Bedford, Mass.) and cultured in MEMa medium with 3 mg/ml BSA, 0.23 mM sodium pyruvate, 50 ug/ml vitamin C, 30 mIU/ml FSH, 50 mg/L streptomycin sulfate, and 75 mg/L penicillin G. After 30 min. of incubation, media were replaced and incubated for another 30 min. […]
Ratios of F-actin to G-actin in intact and fragmented ovaries were determined by F-actin/G-actin in vivo assay kit (Cytoskeleton, Denver, Colo.). […]

[3] = test system: CCN2; experiment: CCN2 transcript and protein levels of ovaries after JASP; format: cell-based; conditions: 30 min. exposure, ovaries from day 10 mice
Experimental: as §1
Paired ovaries from CD-1 mice at different ages were excised in L-15 medium. One ovary from each animal was cut into 2-4 pieces, whereas the contralateral one remained intact. […]
Proteins from NIH3T3 cells or ovaries of mice at day 10 of age were extracted using M-PER Mammalian Protein Extraction Reagent (Thermo, Rockford, Ill.) containing a protease inhibitor cocktail (Thermo). […] Signals were developed using enhanced chemiluminescence (ECL Kit, GE Healthcare) and quantitated using a densitometer. […]

[4] = test system: PTP; conditions: read-out: IC50, PTP inhibitor; cited from earlier work

| Compound | weights of ovarian grafts [1] | actin polymerization (F- and G-actin content) [2] | CCN2 expression (transcript and protein) [3] | IC50 [4] [µM] |
| --- | --- | --- | --- | --- |
| C/C1=C\[C@H](C)C[C@H](C)OC(=O)C[C@H](c2ccc(O)cc2)NC(=O)[C@@H](Cc2c(Br)[nH]c3ccccc23)N(C)C(=O)[C@H](C)NC(=O)[C@@H](C)C1 [JASP, jasplakinolide] | increased weights of ovarian grafts | increased actin polymerization | increased |  |
| monoperoxo(picolinato)oxovanadate(V) |  |  |  | 18 |
